Reference: the NIST ThermoML archive (doi:10.1021/je050483s)

Legend:
[1] = 101 kPa, Liquid
[2] = xn = mol fraction of the nth substance listed; details: 101 kPa, Liquid

C1CCNCC1 [piperidine]
[1]
Details	speed of sound [m/s]
293 K	1384.4
303 K	1342.3
313 K	1299.9
323 K	1257.4

C1CCNCC1 [piperidine] + O
speed of sound [m/s], [2]
Details	293 K	303 K	313 K	323 K
x1 = 0.006	1506.5	1528.7	1544.8	1555.1
x1 = 0.011	1531.1	1548.7	1560.4	1566.8
x1 = 0.028	1590.1	1588.3	1584.5	1578.3
x1 = 0.057	1596.3	1587.1	1576	1562.7
x1 = 0.099	1593.6	1576.5	1557.5	1536.6
x1 = 0.18	1575.4	1547.9	1519.2	1489.3
x1 = 0.267	1550.2	1517.2	1483.5	1449
x1 = 0.354	1525.1	1489.1	1452.5	1415.4
x1 = 0.439	1499.8	1461.1	1424	1384.9
x1 = 0.523	1477	1438	1398.6	1358.9
x1 = 0.646	1445.3	1405.2	1364.8	1324.2
x1 = 0.846	1406.2	1365.1	1323.6	1282
x1 = 1	1384.4	1342.3	1299.9	1257.4

C1CCNC1 [pyrrolidine]
[1]
Details	speed of sound [m/s]
293 K	1389.4
303 K	1348
313 K	1305.8
323 K	1263

C1CCNC1 [pyrrolidine] + O
speed of sound [m/s], [2]
Details	293 K	303 K	313 K	323 K
x1 = 0.006	1501.6	1525.2	1541.5	1552.2
x1 = 0.01	1517.1	1537.1	1551.1	1559.7
x1 = 0.022	1557.9	1569.8	1576.6	1578.7
x1 = 0.068	1650.5	1635.1	1619.3	1602.3
x1 = 0.116	1654.8	1631.8	1608	1583.2
x1 = 0.208	1626.3	1596.4	1565.5	1533.5
x1 = 0.304	1589.8	1555.3	1520	1483.9
x1 = 0.396	1556.7	1519.5	1481.6	1443
x1 = 0.483	1528.8	1489.9	1450.5	1410.5
x1 = 0.567	1500.3	1458.9	1422.2	1377.7
x1 = 0.686	1467.5	1426.8	1385.6	1344
x1 = 0.868	1416.6	1375.5	1333.8	1291.7
x1 = 1	1389.4	1348	1305.8	1263

O [water] + C1CCNC1
Details	speed of sound [m/s]
[2], 313 K, x2 = 0	1529

O [water] + C1CCNCC1
Details	speed of sound [m/s]
[2], 313 K, x2 = 0	1529
